# Measurements from article PMC11393638 (Regulatory toxicology and pharmacology : RTP, 2023).
# Read-outs that look alike come from different tables or passages of the source. Marks after values point to notes of the source that are not given here.
# How the values were obtained:
# [1] = tested on: CYP2C19-expressing TK6 cells; test: TK and HPRT gene mutation assays in CYP2C19-expressing TK6 cells; assay type: cell-based, human; conditions: 4-h treatment
# hamster V79 cells = conditions: without exogenous activation; ref Brambilla et al., 1989; cited from earlier work
# TK6 cells [2] = conditions: up to 10 mM; 1% rat liver S9; ref Liviac et al., 2011; cited from earlier work
# TK6 cells [3] = test: TK and HPRT gene mutation assays in TK6 cells with hamster liver S9
# TK6 cells [4] = conditions: 2% Aroclor-1254-induced rat liver S9; ref Bernacki et al., 2016; cited from earlier work
# TK6 cells [5] = test: In vitro micronucleus assay in TK6 cells; conditions: for %MN frequency with hamster liver S9: 4-h (2% S9) and 24-h (0.4% S9) treatments
# 2D HepaRG cells = conditions: 24 h; 2D cultures
# 3D HepaRG spheroids = conditions: 24 h; 3D cultures
# [6] = tested on: TK6 cells transduced with CYP3A4; conditions: up to 10 μM; 24 h
# [7] = tested on: CYP2C19-expressing TK6 cells; conditions: 4- and 24-h exposures
# [8] = tested on: TK6 cells transduced with CYP2D6; conditions: up to 10 μM; 24 h
# TA1535 = conditions: for BMD50L / BMD50U: CES 0.5
# [9] = tested on: TK6 cells transduced with CYP2C8; conditions: up to 10 μM; 24 h
# WP2 uvrA (pKM101) = conditions: 0–200 μg/plate
# TK6 cells [10] = test: In vitro MultiFlow DNA damage assay in TK6 cells
# [11] = tested on: TK6 cells transduced with CYP2A6; conditions: up to 10 μM; 24 h
# TA98 = conditions: for BMD50L / BMD50U: CES 0.5
# [12] = tested on: tester strains TA1535, TA1537, TA1538, TA92, TA98, and TA100; conditions: maximum concentration 1.4 μmol/plate (404 μg/plate); with and without Aroclor 1254-induced rat liver S9; ref Raisfeld-Danse and Chen, 1983; cited from earlier work
# [13] = tested on: hepatocytes of Sprague-Dawley rats; conditions: single dose of 1000 mg/kg; ref Martelli et al., 1994; cited from earlier work
# TA100 = conditions: for BMD50L / BMD50U: CES 0.5
# [14] = tested on: TK6 cells transduced with CYP2C19; conditions: 24 h without exogenous metabolism
# [15] = tested on: CYP2C19-expressing HepG2 cells; conditions: 24 h without exogenous metabolism, additional 16 h
# [16] = tested on: primary human hepatocytes; conditions: 10 μM to 100 μM; 20-h exposure; ref Robbiano et al., 1991; cited from earlier work
# primary rat hepatocytes = conditions: 10 μM to 100 μM; 20-h exposure; ref Robbiano et al., 1991; cited from earlier work
# [17] = tested on: tester strains TA98 or TA100; conditions: 1 mg/plate; Aroclor 1254-induced rat liver S9; ref Zhang et al., 1983; cited from earlier work
# TA1537 = conditions: 0–200 μg/plate
# [18] = tested on: TK6 cells transduced with CYP2E1; conditions: up to 10 μM; 24 h
# HepG2 cells = conditions: 24 h without exogenous metabolism, additional 16 h
# tester strains = conditions: preliminary study; these concentrations and above
# [19] = 100 μM, 4-h treatment, TK6 cells with 1% hamster liver S9
# [20] = 0–200 μg/plate, S9 activation required
# [21] = 10% hamster liver S9, preincubation 30 min
# [22] = 10% hamster liver S9, preincubation 60 min
# [23] = 10% rat liver S9, preincubation 30 min
# [24] = 10% rat liver S9, preincubation 60 min
# [25] = 30% hamster liver S9, preincubation 30 min
# [26] = 30% hamster liver S9, preincubation 60 min
# [27] = 30% rat liver S9, preincubation 30 min
# [28] = 30% rat liver S9, preincubation 60 min
# [29] = without S9, preincubation 30 min
# [30] = without S9, preincubation 60 min
# [31] = 50 μM, 4-h treatment, TK6 cells with 1% hamster liver S9
# [32] = 200 μM, 4-h treatment, TK6 cells with 1% hamster liver S9
# [33] = 300 μM, 4-h treatment, TK6 cells with 1% hamster liver S9
# [34] = TA98, 10% hamster liver S9, preincubation 30 min
# [35] = TA98, 10% hamster liver S9, preincubation 60 min
# [36] = TA98, 10% rat liver S9, preincubation 30 min
# [37] = TA98, 10% rat liver S9, preincubation 60 min
# [38] = TA98, 30% hamster liver S9, preincubation 30 min
# [39] = TA98, 30% hamster liver S9, preincubation 60 min
# [40] = TA98, 30% rat liver S9, preincubation 30 min
# [41] = TA98, 30% rat liver S9, preincubation 60 min
# [42] = TA98, without S9, preincubation 30 min
# [43] = TA98, without S9, preincubation 60 min
smiles,measurement,setting,value
"O=[N+]([O-])c1cc[n+]([O-])c2ccccc12 [4NQO, reference compound]",HPRT gene MF,[1]; 0.1 μg/mL (positive control),34.1^c × 10^−6
same,Relative survival (%),[1]; 0.1 μg/mL (positive control),59.9%
same,TK gene MF,[1]; 0.1 μg/mL (positive control),69.2^c × 10^−6
CN(N=O)C1=Nc2ccc(Cl)cc2C(c2ccccc2)=[N+]([O-])C1 [N-nitroso chlordiazepoxide],HPRT mutations,hamster V79 cells,induce concentration-dependent HPRT mutations
"CCN(CC)N=O [NDEA, N-nitrosodiethylamine, reference compound]",MN formation,TK6 cells [2],did not induce MN formation
same,HPRT gene MF,TK6 cells [3]; [19],23.1^c × 10^−6
same,Relative survival (%),TK6 cells [3]; [19],66.9%
same,TK gene MF,TK6 cells [3]; [19],44.2^c × 10^−6
same,Genotoxic or cytotoxic responses,TK6 cells [4],failed to biotransform NDEA to produce any genotoxic or cytotoxic responses
same,%MN frequency with hamster liver S9,TK6 cells [5],induced MN
"CC(C)N(CC(O)COc1cccc2ccccc12)N=O (stereo not drawn) [NNP, N-nitroso propranolol]",Lowest concentration that induced positive responses (Comet),2D HepaRG cells,50 µM
same,Lowest concentration that induced positive responses (Comet),3D HepaRG spheroids,25 µM
same,Effect on %MN and cytotoxicity,[6],no effect
same,Nuclear P53,[7],only caused increases in nuclear P53 after 24 h
same,Effect on %MN and cytotoxicity,[8],no effect
same,Mutagenic response in the Ames test (overall),TA1535; [20],positive mutagenic responses
same,BMD50L,TA1535; [21],0.9 μg/plate
same,BMD50U,TA1535; [21],3.4 μg/plate
same,BMD50L,TA1535; [22],2.1 μg/plate
same,BMD50U,TA1535; [22],6.5 μg/plate
same,BMD50L,TA1535; [23],36.1 μg/plate
same,BMD50U,TA1535; [23],108.0 μg/plate
same,BMD50L,TA1535; [24],Negative
same,BMD50L,TA1535; [25],2.3 μg/plate
same,BMD50U,TA1535; [25],7.7 μg/plate
same,BMD50L,TA1535; [26],2.5 μg/plate
same,BMD50U,TA1535; [26],7.1 μg/plate
same,BMD50L,TA1535; [27],Negative
same,BMD50L,TA1535; [28],Negative
same,BMD50L,TA1535; [29],Negative
same,BMD50L,TA1535; [30],Negative
same,HPRT gene MF,TK6 cells [3]; [31],4.2^c × 10^−6
same,TK gene MF,TK6 cells [3]; [31],15.5^c × 10^−6
same,HPRT gene MF,TK6 cells [3]; [19],7.0^c × 10^−6
same,TK gene MF,TK6 cells [3]; [19],21.8^c × 10^−6
same,HPRT gene MF,TK6 cells [3]; [32],3.2^c × 10^−6
same,TK gene MF,TK6 cells [3]; [32],17.8^c × 10^−6
same,HPRT gene MF,TK6 cells [3]; [33],2.6^c × 10^−6
same,TK gene MF,TK6 cells [3]; [33],16.5^c × 10^−6
same,Concentrations producing overt cytotoxicity,"TK6 cells [3]; preliminary concentration range-finding study, 1% hamster liver S9, 4 h",≥ 400 µM
same,Effect on %MN and cytotoxicity,[9],no effect
same,Mutagenic response in the Ames test (overall),WP2 uvrA (pKM101),negative
same,HPRT gene MF,"[1]; 0.0625 μM, no S9",4.5^c × 10^−6
same,TK gene MF,"[1]; 0.0625 μM, no S9",13.2 × 10^−6
same,HPRT gene MF,"[1]; 0.125 μM, no S9",6.5^c × 10^−6
same,TK gene MF,"[1]; 0.125 μM, no S9",18.6^c × 10^−6
same,HPRT gene MF,"[1]; 0.5 μM, no S9",23.0^c × 10^−6
same,TK gene MF,"[1]; 0.5 μM, no S9",28.5^c × 10^−6
same,γH2A.X,TK6 cells [10]; 4-h treatment with 2% hamster S9,concentration-dependent increase
same,γH2A.X,"TK6 cells [10]; 24-h treatment with 0.4% hamster S9, 10 μM (highest concentration, cytotoxic)",level decreased
same,γH2A.X,"TK6 cells [10]; 24-h treatment with 0.4% hamster S9, 2.5 and 5.0 μM",induced increases
same,Phosphorylation of histone H3 (aneugen marker),TK6 cells [10]; data not shown,did not increase
same,γH2A.X fluorescence,TK6 cells [10]; without S9,did not induce any increase
same,γH2A.X compared to the vehicle control,"TK6 cells [10]; without S9, 100 μM",statistically significant decrease
same,Effect on %MN and cytotoxicity,[11],no effect
same,Mutagenic response in the Ames test (overall),"TA98; TA98, 0–200 μg/plate, preincubation method",mutagenic both in the presence and absence of S9
same,BMD50L,TA98; [34],5.7 μg/plate
same,BMD50U,TA98; [34],10.1 μg/plate
same,BMD50L,TA98; [35],6.9 μg/plate
same,BMD50U,TA98; [35],14.5 μg/plate
same,BMD50L,TA98; [36],7.9 μg/plate
same,BMD50U,TA98; [36],13.0 μg/plate
same,BMD50L,TA98; [37],7.2 μg/plate
same,BMD50U,TA98; [37],11.5 μg/plate
same,BMD50L,TA98; [38],12.8 μg/plate
same,BMD50U,TA98; [38],21.4 μg/plate
same,BMD50L,TA98; [39],18.3 μg/plate
same,BMD50U,TA98; [39],30.3 μg/plate
same,BMD50L,TA98; [40],16.2 μg/plate
same,BMD50U,TA98; [40],27.0 μg/plate
same,BMD50L,TA98; [41],22.4 μg/plate
same,BMD50U,TA98; [41],36.8 μg/plate
same,BMD50L,TA98; [42],9.8 μg/plate
same,BMD50U,TA98; [42],24.7 μg/plate
same,BMD50L,TA98; [43],9.3 μg/plate
same,BMD50U,TA98; [43],15.4 μg/plate
same,Solvent effect on mutagenicity in TA98,"TA98; dissolved in acetone, methanol, or DMSO",very similar mutational responses
same,Mutagenicity in the Ames test,[12],negative
same,%MN frequency with hamster liver S9,TK6 cells [5],concentration-dependent increase
same,Cytotoxicity after metabolic activation by hamster liver S9,TK6 cells [5]; 4-h and 24-h treatments,displayed cytotoxicity
same,Effect on %MN and cytotoxicity,"TK6 cells [5]; non-CYP-transduced TK6 cells, up to 10 μM, 24 h",no effect
same,MN formation over vehicle controls,"TK6 cells [5]; without exogenous metabolism, up to 100 μM, 24 h",did not result in any increase in MN formation
same,Micronucleus (MN) formation in hepatocytes,[13],induced micronucleus (MN) formation
same,Mutagenic response in the Ames test (overall),TA100; [20],positive mutagenic responses
same,BMD50L,TA100; [21],5.9 μg/plate
same,BMD50U,TA100; [21],21.1 μg/plate
same,BMD50L,TA100; [22],14.1 μg/plate
same,BMD50U,TA100; [22],34.4 μg/plate
same,BMD50L,TA100; [23],Negative
same,BMD50L,TA100; [24],Negative
same,BMD50L,TA100; [25],7.3 μg/plate
same,BMD50U,TA100; [25],19.9 μg/plate
same,BMD50L,TA100; [26],24.7 μg/plate
same,BMD50U,TA100; [26],62.2 μg/plate
same,BMD50L,TA100; [27],Negative
same,BMD50L,TA100; [28],Negative
same,BMD50L,TA100; [29],Negative
same,BMD50L,TA100; [30],Negative
same,Lowest concentration causing a statistically significant increase in %MN,[14],0.0625 µM
same,%MN,[15],concentration-dependent increase
same,Lowest observed adverse effect level (LOAEL) for %MN,[15],2 µM
same,DNA fragmentation and unscheduled DNA synthesis (UDS),[16],concentration-dependent increase
same,DNA fragmentation and unscheduled DNA synthesis (UDS),primary rat hepatocytes,concentration-dependent increase
same,Mutations in the Ames test,[17],did not induce mutations
same,Mutagenic response in the Ames test (overall),TA1537,negative
same,Effect on %MN and cytotoxicity,[18],no effect
same,Cytotoxicity or MN formation,HepG2 cells,did not cause any cytotoxicity or MN formation
same,Concentrations with considerable toxicity in the Ames test,tester strains,100–500 μg/plate
